In patent US20260356819A1, “OXOISOINDOLINYL-SUBSTITUTED […] DERIVATIVE AND USE THEREOF” (GLUETACS THERAPEUTICS (SHANGHAI) CO., LTD., priority 2023, published 2026):

Columns and labels:
Assay type in all cases: cell-based
Details in all cases: compounds at 50 nM and 500 nM
WEE1 = biological target: T1, WEE1 (Homo sapiens, UniProt P30291+Q96SW2); test: Western blot degradation of WEE1 in hPBMCs (24 h)
T1 construct: The supernatant was aspirated as the extracted total cell protein; endogenous in cells; host or cells: human peripheral blood mononuclear cells (hPBMCs)
T1 sequence (P30291 whole entry): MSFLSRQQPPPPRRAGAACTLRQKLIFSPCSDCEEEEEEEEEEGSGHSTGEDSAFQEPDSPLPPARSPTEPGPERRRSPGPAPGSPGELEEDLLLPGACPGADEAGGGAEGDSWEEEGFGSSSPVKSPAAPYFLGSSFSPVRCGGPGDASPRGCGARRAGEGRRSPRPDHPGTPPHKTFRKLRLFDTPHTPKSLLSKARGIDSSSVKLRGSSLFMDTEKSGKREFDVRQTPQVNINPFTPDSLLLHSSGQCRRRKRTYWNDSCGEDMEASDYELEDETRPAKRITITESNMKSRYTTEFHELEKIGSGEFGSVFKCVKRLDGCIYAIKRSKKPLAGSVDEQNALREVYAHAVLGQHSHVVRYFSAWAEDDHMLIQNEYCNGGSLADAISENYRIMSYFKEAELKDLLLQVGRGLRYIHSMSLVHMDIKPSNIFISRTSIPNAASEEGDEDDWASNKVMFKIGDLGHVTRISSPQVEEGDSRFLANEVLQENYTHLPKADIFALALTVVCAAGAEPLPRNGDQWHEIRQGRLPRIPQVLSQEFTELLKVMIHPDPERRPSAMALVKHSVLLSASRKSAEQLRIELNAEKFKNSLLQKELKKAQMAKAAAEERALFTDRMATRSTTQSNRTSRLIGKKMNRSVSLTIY
T1 sequence (Q96SW2 whole entry): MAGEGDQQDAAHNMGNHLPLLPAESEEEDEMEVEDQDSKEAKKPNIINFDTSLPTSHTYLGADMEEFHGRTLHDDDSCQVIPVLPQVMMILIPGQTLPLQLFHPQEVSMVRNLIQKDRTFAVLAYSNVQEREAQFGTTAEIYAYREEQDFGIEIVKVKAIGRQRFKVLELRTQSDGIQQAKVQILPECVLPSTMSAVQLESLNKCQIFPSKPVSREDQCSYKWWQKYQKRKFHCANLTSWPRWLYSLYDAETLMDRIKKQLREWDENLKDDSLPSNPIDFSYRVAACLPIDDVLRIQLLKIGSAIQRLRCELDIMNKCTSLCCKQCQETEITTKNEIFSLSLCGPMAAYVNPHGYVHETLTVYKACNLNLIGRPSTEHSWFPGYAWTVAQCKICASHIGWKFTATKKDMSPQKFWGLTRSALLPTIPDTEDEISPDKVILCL
T1 sequence (Q16531 whole entry partner): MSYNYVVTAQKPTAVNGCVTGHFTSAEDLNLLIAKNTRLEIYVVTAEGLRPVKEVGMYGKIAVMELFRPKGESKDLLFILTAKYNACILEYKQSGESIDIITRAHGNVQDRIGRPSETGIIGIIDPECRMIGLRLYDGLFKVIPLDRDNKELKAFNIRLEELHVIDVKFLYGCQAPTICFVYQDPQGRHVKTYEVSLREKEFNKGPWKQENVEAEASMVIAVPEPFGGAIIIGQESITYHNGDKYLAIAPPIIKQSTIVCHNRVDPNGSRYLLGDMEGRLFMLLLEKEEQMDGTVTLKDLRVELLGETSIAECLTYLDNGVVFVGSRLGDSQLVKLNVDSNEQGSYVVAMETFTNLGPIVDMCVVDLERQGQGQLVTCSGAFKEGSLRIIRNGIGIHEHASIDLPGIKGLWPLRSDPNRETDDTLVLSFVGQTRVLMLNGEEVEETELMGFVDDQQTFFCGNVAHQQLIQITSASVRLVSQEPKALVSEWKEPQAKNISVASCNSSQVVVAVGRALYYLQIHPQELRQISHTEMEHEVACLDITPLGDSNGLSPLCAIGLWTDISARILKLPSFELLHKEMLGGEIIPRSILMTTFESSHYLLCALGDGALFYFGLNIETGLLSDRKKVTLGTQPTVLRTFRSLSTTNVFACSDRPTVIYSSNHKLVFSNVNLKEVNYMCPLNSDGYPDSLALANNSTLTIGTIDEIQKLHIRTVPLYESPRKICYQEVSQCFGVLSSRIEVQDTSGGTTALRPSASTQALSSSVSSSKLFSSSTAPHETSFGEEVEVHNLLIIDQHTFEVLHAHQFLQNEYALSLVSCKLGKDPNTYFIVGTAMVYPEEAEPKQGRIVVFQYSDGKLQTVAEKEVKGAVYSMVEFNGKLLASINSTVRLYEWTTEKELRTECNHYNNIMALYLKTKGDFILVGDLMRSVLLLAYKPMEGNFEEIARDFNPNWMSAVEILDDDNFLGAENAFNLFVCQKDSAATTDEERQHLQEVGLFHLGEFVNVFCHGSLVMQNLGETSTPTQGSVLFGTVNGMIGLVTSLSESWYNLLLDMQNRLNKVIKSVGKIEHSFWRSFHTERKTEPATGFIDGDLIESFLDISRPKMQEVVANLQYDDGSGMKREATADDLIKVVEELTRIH
Summary of the method: (§1)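 Thawed human PBMCs, 1×10^6 cells/mL; cpd 50 nM or 500 nM, 24 h; RIPA lysis, BCA, SDS-PAGE, NC transfer, immunoblot. Readout: grayscale/internal control → % remaining; degradation = 1 − remaining.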

IKZF1 = biological target: T2, IKZF1 (Homo sapiens, UniProt Q13422+Q96SW2); test: Western blot degradation of IKZF1 in hPBMCs (24 h)
T2 construct: The supernatant was aspirated as the extracted total cell protein; endogenous in cells; host or cells: human peripheral blood mononuclear cells (hPBMCs)
T2 sequence (Q13422 whole entry): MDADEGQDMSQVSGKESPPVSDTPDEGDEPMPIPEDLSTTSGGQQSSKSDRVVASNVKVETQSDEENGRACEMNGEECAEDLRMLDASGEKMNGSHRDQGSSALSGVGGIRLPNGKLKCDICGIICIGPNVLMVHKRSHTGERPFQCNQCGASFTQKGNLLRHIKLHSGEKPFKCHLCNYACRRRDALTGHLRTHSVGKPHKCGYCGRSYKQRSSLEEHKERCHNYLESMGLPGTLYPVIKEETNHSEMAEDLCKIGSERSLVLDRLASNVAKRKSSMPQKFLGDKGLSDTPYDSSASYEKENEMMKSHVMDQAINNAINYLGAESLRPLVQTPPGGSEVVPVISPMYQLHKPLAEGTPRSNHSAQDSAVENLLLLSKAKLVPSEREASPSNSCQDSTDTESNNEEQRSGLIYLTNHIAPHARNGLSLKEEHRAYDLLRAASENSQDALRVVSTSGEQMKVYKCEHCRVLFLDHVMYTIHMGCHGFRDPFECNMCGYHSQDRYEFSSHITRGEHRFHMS
T2 sequence (Q96SW2 whole entry): as the sequence (Q96SW2 whole entry) above
T2 sequence (Q16531 whole entry partner): as the sequence (Q16531 whole entry partner) above
Summary of the method: as §1

IKZF2 = biological target: T3, IKZF2 (Homo sapiens, UniProt Q96SW2+Q9UKS7); test: Western blot degradation of IKZF2 in hPBMCs (24 h)
T3 construct: The supernatant was aspirated as the extracted total cell protein; endogenous in cells; host or cells: human peripheral blood mononuclear cells (hPBMCs)
T3 sequence (Q9UKS7 whole entry): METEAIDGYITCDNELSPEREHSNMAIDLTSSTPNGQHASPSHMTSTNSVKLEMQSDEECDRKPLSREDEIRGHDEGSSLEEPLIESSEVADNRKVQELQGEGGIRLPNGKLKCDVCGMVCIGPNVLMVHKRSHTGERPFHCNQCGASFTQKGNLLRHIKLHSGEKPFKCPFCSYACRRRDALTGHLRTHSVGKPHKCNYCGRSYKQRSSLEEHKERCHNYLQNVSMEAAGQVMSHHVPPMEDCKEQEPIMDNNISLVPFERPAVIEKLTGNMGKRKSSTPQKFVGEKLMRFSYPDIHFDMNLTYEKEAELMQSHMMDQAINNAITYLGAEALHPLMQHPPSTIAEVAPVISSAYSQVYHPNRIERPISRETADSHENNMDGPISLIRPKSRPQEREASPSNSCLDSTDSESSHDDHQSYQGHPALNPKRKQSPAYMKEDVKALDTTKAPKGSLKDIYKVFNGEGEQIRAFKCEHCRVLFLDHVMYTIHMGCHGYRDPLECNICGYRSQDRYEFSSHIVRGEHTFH
T3 sequence (Q96SW2 whole entry): as the sequence (Q96SW2 whole entry) above
T3 sequence (Q16531 whole entry partner): as the sequence (Q16531 whole entry partner) above
Summary of the method: as §1

IKZF3 = biological target: T4, IKZF3 (Homo sapiens, UniProt Q96SW2+Q9UKT9); test: Western blot degradation of IKZF3 in hPBMCs (24 h)
T4 construct: The supernatant was aspirated as the extracted total cell protein; endogenous in cells; host or cells: human peripheral blood mononuclear cells (hPBMCs)
T4 sequence (Q9UKT9 whole entry): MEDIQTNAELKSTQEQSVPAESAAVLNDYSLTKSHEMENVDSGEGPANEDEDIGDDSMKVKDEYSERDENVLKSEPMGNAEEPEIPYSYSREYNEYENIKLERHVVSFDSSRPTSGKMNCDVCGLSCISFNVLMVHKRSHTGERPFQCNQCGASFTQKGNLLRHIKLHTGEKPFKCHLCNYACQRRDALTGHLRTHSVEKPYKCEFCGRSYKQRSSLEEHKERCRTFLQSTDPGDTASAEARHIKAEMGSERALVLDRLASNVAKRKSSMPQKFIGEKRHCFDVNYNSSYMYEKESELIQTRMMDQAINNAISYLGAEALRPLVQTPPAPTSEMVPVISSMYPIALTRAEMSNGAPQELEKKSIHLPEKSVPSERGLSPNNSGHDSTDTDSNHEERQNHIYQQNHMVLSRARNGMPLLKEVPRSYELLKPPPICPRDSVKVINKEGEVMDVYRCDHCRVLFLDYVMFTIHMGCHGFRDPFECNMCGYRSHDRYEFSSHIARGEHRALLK
T4 sequence (Q96SW2 whole entry): as the sequence (Q96SW2 whole entry) above
T4 sequence (Q16531 whole entry partner): as the sequence (Q16531 whole entry partner) above
Summary of the method: as §1

CK1α = biological target: T5, CK1α (Homo sapiens, UniProt P48729+Q96SW2); test: Western blot degradation of CK1α in hPBMCs (24 h)
T5 construct: The supernatant was aspirated as the extracted total cell protein; endogenous in cells; host or cells: human peripheral blood mononuclear cells (hPBMCs)
T5 sequence (P48729 whole entry): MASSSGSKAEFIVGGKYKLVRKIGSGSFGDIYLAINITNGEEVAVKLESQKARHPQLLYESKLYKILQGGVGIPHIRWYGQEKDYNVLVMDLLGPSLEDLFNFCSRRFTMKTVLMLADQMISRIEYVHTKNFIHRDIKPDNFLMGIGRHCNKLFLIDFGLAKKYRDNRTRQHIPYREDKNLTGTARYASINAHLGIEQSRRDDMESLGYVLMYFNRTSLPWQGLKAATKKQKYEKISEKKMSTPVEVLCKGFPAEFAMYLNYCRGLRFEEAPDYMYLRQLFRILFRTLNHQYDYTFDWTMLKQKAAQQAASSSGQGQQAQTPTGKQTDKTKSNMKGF
T5 sequence (Q96SW2 whole entry): as the sequence (Q96SW2 whole entry) above
T5 sequence (Q16531 whole entry partner): as the sequence (Q16531 whole entry partner) above
Summary of the method: as §1

GSPT1 = biological target: T6, GSPT1 (Homo sapiens, UniProt P15170+Q96SW2); test: Western blot degradation of GSPT1 in hPBMCs (24 h)
T6 construct: The supernatant was aspirated as the extracted total cell protein; endogenous in cells; host or cells: human peripheral blood mononuclear cells (hPBMCs)
Summary of the method: as §1

Structure (SMILES) | WEE1 substrate protein remaining % (WEE1) | IKZF1 substrate protein remaining % (IKZF1) | IKZF2 substrate protein remaining % (IKZF2) | IKZF3 substrate protein remaining % (IKZF3) | CK1α substrate protein remaining % (CK1α) | GSPT1 substrate protein remaining % (GSPT1)
O=C1CCN(N2Cc3cc(CN4CCN(c5c(F)cncc5Cl)CC4)ccc3C2=O)C(=O)N1 [GT-07171, 1-(5-((4-(3-chloro-5-fluoropyridin-4-yl)piperazin-1-yl)methyl)-1-oxoisoindolin-2-yl)dihydropyrimidine-2,4(1H,3H)-dione] | A (0% ≤ substrate protein remaining % ≤80%) | B (80%< substrate protein remaining % ≤100%) | B (80%< substrate protein remaining % ≤100%) | B (80%< substrate protein remaining % ≤100%) | B (80%< substrate protein remaining % ≤100%) | B (80%< substrate protein remaining % ≤100%)
O=C1CCN(N2C(=O)c3ccc(CN4CCN(c5ncccn5)CC4)cc3C2=O)C(=O)N1 [GT-07285, 2-(2,4-dioxotetrahydropyrimidin-1(2H)-yl)-5-((4-(pyrimidin-2-yl)piperazin-1-yl)methyl)isoindoline-1,3-dione] | A (0% ≤ substrate protein remaining % ≤80%) | A (0% ≤ substrate protein remaining % ≤80%) | B (80%< substrate protein remaining % ≤100%) | B (80%< substrate protein remaining % ≤100%) | B (80%< substrate protein remaining % ≤100%) | B (80%< substrate protein remaining % ≤100%)
O=C1CCN(N2C(=O)c3ccc(CN4CCN(c5nccc(Cl)c5Br)CC4)cc3C2=O)C(=O)N1 [GT-07291, 5-((4-(3-bromo-4-chloropyridin-2-yl)piperazin-1-yl)methyl)-2-(2,4-dioxotetrahydropyrimidin-1(2H)-yl)isoindoline-1,3-dione] | A (0% ≤ substrate protein remaining % ≤80%) | B (80%< substrate protein remaining % ≤100%) | B (80%< substrate protein remaining % ≤100%) | B (80%< substrate protein remaining % ≤100%) | B (80%< substrate protein remaining % ≤100%) | A (0% ≤ substrate protein remaining % ≤80%)
O=C1CCN(N2C(=O)c3ccc(CN4CCCN(C(c5ccccc5)c5ccccc5)CC4)cc3C2=O)C(=O)N1 [GT-07295, 5-((4-benzhydryl-1,4-diazepan-1-yl)methyl)-2-(2,4-dioxotetrahydropyrimidin-1(2H)-yl)isoindoline-1,3-dione] | B (80%< substrate protein remaining % ≤100%) | B (80%< substrate protein remaining % ≤100%) | B (80%< substrate protein remaining % ≤100%) | B (80%< substrate protein remaining % ≤100%) | B (80%< substrate protein remaining % ≤100%) | A (0% ≤ substrate protein remaining % ≤80%)
CC1(C)CCC(CN2CCN(Cc3ccc4c(c3)CN(N3CCC(=O)NC3=O)C4=O)C(C(F)(F)F)C2)=C(c2ccc(Cl)cc2)C1 (stereo not drawn) [GT-07296, 1-(5-((4-((4′-chloro-5,5-dimethyl-3,4,5,6-tetrahydro-[1,1′-biphenyl]-2-yl)methyl)-2-(trifluoromethyl)piperazin-1-yl)methyl)-1-oxoisoindolin-2-yl)dihydropyrimidine-2,4(1H,3H)-dione] | A (0% ≤ substrate protein remaining % ≤80%) | A (0% ≤ substrate protein remaining % ≤80%) | B (80%< substrate protein remaining % ≤100%) | B (80%< substrate protein remaining % ≤100%) | A (0% ≤ substrate protein remaining % ≤80%) | A (0% ≤ substrate protein remaining % ≤80%)
O=C1CCN(N2Cc3cc(CN4CCN(CC5=C(c6ccc(F)cc6)CCCC5)CC4)ccc3C2=O)C(=O)N1 [GT-07297, 1-(5-((4-((4′-fluoro-3,4,5,6-tetrahydro-[1,1′-biphenyl]-2-yl)methyl)piperazin-1-yl)methyl)-1-oxoisoindolin-2-yl)dihydropyrimidine-2,4(1H,3H)-dione] | A (0% ≤ substrate protein remaining % ≤80%) | B (80%< substrate protein remaining % ≤100%) | A (0% ≤ substrate protein remaining % ≤80%) | A (0% ≤ substrate protein remaining % ≤80%) | A (0% ≤ substrate protein remaining % ≤80%) | A (0% ≤ substrate protein remaining % ≤80%)
CC1(C)CCC(CN2CC3CCC2CN3Cc2ccc3c(c2)C(=O)N(N2CCC(=O)NC2=O)C3=O)=C(c2ccc(Cl)cc2)C1 (stereo not drawn) [GT-07300, 5-((5-((4′-chloro-5,5-dimethyl-3,4,5,6-tetrahydro-[1,1′-biphenyl]-2-yl)methyl)-2,5-diazabicyclo[2.2.2]octan-2-yl)methyl)-2-(2,4-dioxotetrahydropyrimidin-1(2H)-yl)isoindoline-1,3-dione] | A (0% ≤ substrate protein remaining % ≤80%) | B (80%< substrate protein remaining % ≤100%) | B (80%< substrate protein remaining % ≤100%) | B (80%< substrate protein remaining % ≤100%) | B (80%< substrate protein remaining % ≤100%) | B (80%< substrate protein remaining % ≤100%)
CC1(C)CCC(CN2CCN(Cc3ccc4c(c3)C(=O)N(N3CCC(=O)NC3=O)C4=O)C(C(F)(F)F)C2)=C(c2ccc(Cl)cc2)C1 (stereo not drawn) [GT-07301, 5-((4-((4′-chloro-5,5-dimethyl-3,4,5,6-tetrahydro-[1,1′-biphenyl]-2-yl)methyl)-2-(trifluoromethyl)piperazin-1-yl)methyl)-2-(2,4-dioxotetrahydropyrimidin-1(2H)-yl)isoindoline-1,3-dione] | B (80%< substrate protein remaining % ≤100%) | B (80%< substrate protein remaining % ≤100%) | B (80%< substrate protein remaining % ≤100%) | B (80%< substrate protein remaining % ≤100%) | B (80%< substrate protein remaining % ≤100%) | A (0% ≤ substrate protein remaining % ≤80%)
O=C1CCN(N2C(=O)c3ccc(CN4CCN(CC5=C(c6ccc(F)cc6)CCCC5)CC4)cc3C2=O)C(=O)N1 [GT-07302, 2-(2,4-dioxotetrahydropyrimidin-1(2H)-yl)-5-((4-((4′-fluoro-3,4,5,6-tetrahydro-[1,1′-biphenyl]-2-yl)methyl)piperazin-1-yl)methyl)isoindoline-1,3-dione] | A (0% ≤ substrate protein remaining % ≤80%) | B (80%< substrate protein remaining % ≤100%) | B (80%< substrate protein remaining % ≤100%) | B (80%< substrate protein remaining % ≤100%) | B (80%< substrate protein remaining % ≤100%) | B (80%< substrate protein remaining % ≤100%)
CC1(C)CC(c2ccc(Cl)cc2)=C(CN2CCN(Cc3ccc4c(c3)C(=O)N(N3CCC(=O)NC3=O)C4=O)CC2)CO1 [GT-07304, 5-((4-((4-(4-chlorophenyl)-6,6-dimethyl-5,6-dihydro-2H-pyran-3-yl)methyl)piperazin-1-yl)methyl)-2-(2,4-dioxotetrahydropyrimidin-1(2H)-yl)isoindoline-1,3-dione] | B (80%< substrate protein remaining % ≤100%) | B (80%< substrate protein remaining % ≤100%) | B (80%< substrate protein remaining % ≤100%) | B (80%< substrate protein remaining % ≤100%) | A (0% ≤ substrate protein remaining % ≤80%) | A (0% ≤ substrate protein remaining % ≤80%)
Cc1ccsc1C1CCN(Cc2ccc3c(c2)CN(N2CCC(=O)NC2=O)C3=O)CC1 [GT-07305, 1-(5-((4-(3-methylthiophen-2-yl)piperidin-1-yl)methyl)-1-oxoisoindolin-2-yl)dihydropyrimidine-2,4(1H,3H)-dione] | B (80%< substrate protein remaining % ≤100%) | B (80%< substrate protein remaining % ≤100%) | A (0% ≤ substrate protein remaining % ≤80%) | A (0% ≤ substrate protein remaining % ≤80%) | B (80%< substrate protein remaining % ≤100%) | A (0% ≤ substrate protein remaining % ≤80%)
Cc1ccsc1C1CCN(Cc2ccc3c(c2)C(=O)N(N2CCC(=O)NC2=O)C3=O)CC1 [GT-07306, 2-(2,4-dioxotetrahydropyrimidin-1(2H)-yl)-5-((4-(3-methylthiophen-2-yl)piperidin-1-yl)methyl)isoindoline-1,3-dione] | B (80%< substrate protein remaining % ≤100%) | B (80%< substrate protein remaining % ≤100%) | B (80%< substrate protein remaining % ≤100%) | A (0% ≤ substrate protein remaining % ≤80%) | B (80%< substrate protein remaining % ≤100%) | A (0% ≤ substrate protein remaining % ≤80%)
